Experiments:
[1] = Inhibitory activity of compound on p24 production in peripheral blood mononuclear cells infected with HIV strain HTLV IIIB wild type.; format: functional; settings: Homo sapiens
[2] = Inhibitory activity of compound on p24 production in peripheral blood mononuclear cells infected with HIV strain A17.; format: functional; settings: Homo sapiens
[3] = Inhibitory activity of compound on p24 production in peripheral blood mononuclear cells infected with HIV strain A17 variant.; format: functional; settings: Homo sapiens
[4] = biological target: Human immunodeficiency virus type 1 reverse transcriptase (Human immunodeficiency virus 1, UniProt Q72547); test: Inhibition of purified recombinant HIV-1 reverse transcriptase
[5] = Inhibitory activity of compound on p24 production in peripheral blood mononuclear cells infected with HIV strain RT-MDR.; format: functional; settings: Homo sapiens
[6] = Inhibitory activity of compound won p24 production in peripheral blood mononuclear cells infected with HIV strain HTLV IIIB wild type.; format: functional; settings: Homo sapiens

SMILES | IC50 [1] | IC50 [2] | IC50 [3] | IC50 [4] | IC50 [5] | IC50 [6]
Fc1ccccc1CCNC(=S)Nc1ccc(Br)cn1 | < 0.01 µM | 0.2 µM | 41 µM | 0.6 µM | 0.005 µM | 
COc1ccc(OC)c(CCNC(=S)Nc2ccc(Br)cn2)c1 | < 0.001 µM | 0.1 µM | 11 µM | 0.1 µM | 0.005 µM | 
Fc1ccc(CCNC(=S)Nc2ccc(Br)cn2)cc1 |  |  |  | 6.4 µM |  | 
Fc1cccc(CCNC(=S)Nc2ccc(Br)cn2)c1 | < 0.001 µM |  |  | 0.7 µM | 0.02 µM | 
Cc1cn([C@H]2C[C@H](N=[N+]=[N-])[C@@H](CO)O2)c(=O)[nH]c1=O [ZIDOVUDINE] | 0.004 µM | 0.006 µM | 0.004 µM |  | 0.15 µM | 
S=C(NCCC1=CCCCC1)Nc1ccc(Cl)cn1 | 0.003 µM |  |  | 3.7 µM |  | 
CCOCn1c(Cc2ccccc2)c(C(C)C)c(=O)[nH]c1=O [EMIVIRINE] |  |  |  | 0.8 µM | 0.3 µM | 
S=C(NCCc1ccccc1Cl)Nc1ccc(Br)cn1 | < 0.01 µM |  |  | 0.7 µM | 0.004 µM | 
Cc1ccnc2c1NC(=O)c1cccnc1N2C1CC1 [NEVIRAPINE] |  | > 100 µM | > 100 µM |  | 5 µM | 0.034 µM
CC(C)Nc1cccnc1N1CCN(C(=O)c2cc3cc(NS(C)(=O)=O)ccc3[nH]2)CC1 [DELAVIRDINE] | 0.009 µM | 50 µM | > 100 µM |  | 0.4 µM | 
S=C(NCCc1ccccn1)Nc1ccc(Br)cn1 [TROVIRDINE] | 0.007 µM |  |  |  | 0.02 µM | 

From ChEMBL document CHEMBL1131738, “Rational design of N-[2-(2,5-dimethoxyphenylethyl)]-N'-[2-(5-bromopyridyl)]-thiourea (HI-236) as a potent non-nucleoside inhibitor of drug-resistant human immunodeficiency virus” (Bioorg Med Chem Lett, 1999)
